Data reported in patent US20100016335A1, “NOVEL AMINOPYRIDINE DERIVATIVES HAVING AURORA A SELECTIVE INHIBITORY ACTION” (priority 2006, published 2010).
Where a name gives a salt, the structure may show the parent alone.

Experiments:
[1] = system: Human cervical cancer cells (HeLa S3); experiment: Effect by combined use of drugs in cells (docetaxel), WST-8 method; format: cell-based; settings: HeLa S3, three days; for inhibition at 0.1 µM: compound 0.1 μM alone; for inhibition at 0.3 µM: compound 0.3 μM alone
Procedure: Fetal calf serum (FCS) was purchased from Moregate Biotech, DMEM medium from Invitrogen Corp., docetaxel (tradename: Taxere) from Sigma-Aldrich, Inc., and WST-8 from Kishida Chemical Co., Ltd.
(§1) Human cervical cancer cells (HeLa S3) were obtained from the American Type Culture Collection (ATCC).
Cells were suspended in a DMEM medium containing 10% FCS, and the cell suspension was dispensed to two 96-well plastic plates at a rate of 750 cells/100 microliters per well. The plates were incubated overnight in 5% CO2-95% air at 37° C. A drug was subjected to graded dilution in dimethylsulfoxide and further diluted with DMSO or with a DMEM medium containing 10% FCS and also containing 0.6 nM docetaxel. Then, the dilutions were each dispensed to one of the plates on which cells had been disseminated in advance, at a rate of 100 microliters per well. The final concentration of docetaxel at this stage was 0.3 nM. Also, the concentrations in the case of sole administration of the compound according to the invention were 0.003, 0.01, 0.03, 0.1, 0.3, 1, 3 and 10 μM. The plates were incubated for further three days in 5% CO2-95% air at 37° C. Cell growth after incubation was measured by the WST-8 method (H. Tominaga, et al., Anal. Commun., 36, 47-50 (1999)). Here, the WST-8 method refers to a method in which 20 microliters of a WST-8 reagent solution is added to each well, incubation is conducted at 37° C. for 60 minutes, the plate is stirred, and the amount of formazan produced is measured by a colorimetric method to determine the inhibitory rate of the drug. The growth inhibitory effects of docetaxel and of the compound according to the invention were determined, with the value obtained in sole treatment of DMSO being defined as 0%.

[2] = system: Human cervical cancer cells (HeLa S3); experiment: Cell growth inhibitory effect, WST-8 method; format: cell-based; settings: Homo sapiens, 72 h; HeLa S3, three days incubation; read-out: Cell growth inhibitory effect (HeLaS3) (IC50)
Procedure: Fetal calf serum (FCS) was purchased from Moregate Biotech, and DMEM medium was purchased from Invitrogen Corp. WST-8 was purchased from Kishida Chemical Co., Ltd.
as §1
Cells were suspended in a DMEM medium containing 10% FCS, and the cell suspension was dispensed to a 96-well plastic plate at a rate of 750 cells/100 microliters per well. The plate was incubated overnight in 5% CO2-95% air at 37° C. A drug was subjected to graded dilution in dimethylsulfoxide and further diluted with a DMEM medium containing 10% FCS. Then, the dilution was dispensed to the plate on which cells had been disseminated in advance, at a rate of 100 microliters per well. The plate was incubated for further three days in 5% CO2-95% air at 37° C. Cell growth after incubation was measured by the WST-8 method (H. Tominaga, et al., Anal. Commun., 36, 47-50 (1999)). Here, the WST-8 method refers to a method in which 20 microliters of a WST-8 reagent solution is added to each well, incubation is conducted at 37° C. for 60 minutes, the plate is stirred, and the amount of formazan produced is measured by a […] method to determine the inhibitory rate of the drug.

[3] = target: T1, human Aurora A (Homo sapiens, UniProt O14965); experiment: Aurora A inhibitory activity (IMAP fluorescence polarization phosphorylation assay); format: biochemical; settings: 20 μM ATP, 30° C., 120 minutes
T1 construct: His (N); made in house; host or cells: Escherichia coli BL21-CodonPlus(DE3)-RIL
T1 sequence (O14965 1-403): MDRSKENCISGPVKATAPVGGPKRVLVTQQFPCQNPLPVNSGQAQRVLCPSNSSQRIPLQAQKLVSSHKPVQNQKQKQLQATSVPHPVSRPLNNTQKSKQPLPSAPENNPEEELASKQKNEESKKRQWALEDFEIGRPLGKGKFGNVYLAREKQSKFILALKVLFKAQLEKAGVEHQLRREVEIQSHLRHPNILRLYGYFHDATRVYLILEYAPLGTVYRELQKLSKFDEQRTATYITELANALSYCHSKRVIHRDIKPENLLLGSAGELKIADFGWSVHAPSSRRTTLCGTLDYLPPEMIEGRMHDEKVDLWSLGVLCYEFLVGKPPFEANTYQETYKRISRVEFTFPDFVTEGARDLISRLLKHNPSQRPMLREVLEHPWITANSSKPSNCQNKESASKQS
Excerpt: cDNA of N-terminal His-tagged human Aurora A was integrated into an expression vector, which was then highly expressed in Escherichia coli BL21-CodonPlus(DE3)-RIL cells. The Escherichia coli was harvested and lysed, and then the His-tagged human Aurora A protein was applied onto a nickel chelate column and eluted from the column with imidazole. The active fractions were desalted with a desalting column to give a purified enzyme.
For the phosphorylation reaction, the method by Upstate, Inc. [Kinase Profiler™ Assay Protocols] was referred to, and phosphorylation of the substrate was detected using IMAP® technology (Molecular Devices, Co. Ltd.) (Gaudet E W. et. al, J. Biomol. Screen, 8, 164-175 (2003)). Concretely, the phosphorylation reaction and the detection were carried out as follows:
The phosphorylation reaction was conducted using 384 well plate, and the reaction volume was 10 μl/well. The reaction buffer is comprised of 50 mM Tris-chloride buffer (pH 7.4), 15 mM magnesium acetate, and 0.2 mM ethylenediamine-N,N,N′,N′-tetraacetic acid (EDTA). Thereto, the purified Aurora A protein, 100 nM of the peptide substrate, and 20 μM of adenosine 5′-triphosphate (ATP) were added, and then the reaction was carried out at 30° C. for 120 minutes.
Thereafter, in order to terminate and detect the reaction, 30 μl of the IMAP (registered trademark) binding reagent (IMAP Progressive Binding Reagent, R7284) that had been diluted (1:400) in the 1×IMAP binding buffer A (IMAP Progressive Binding Buffer A, 5× stock, R7282) was added to each well. The solution stood still for 60 minutes in the dark, and then fluorescence polarization was measured using a high-end microplate reader (excitation wavelength: 485 nm; emission wavelength: 520 nm).
(§2) The compound to be tested was added to the reaction system such that a dilution series of the compound in dimethylsulfoxide (DMSO) was prepared, and then 0.5 μL of this solution was added for the testing to each well. Each control well was provided by adding 0.5 μL of DMSO to the well in place of the DMSO solution containing the compound to be tested.

[4] = target: T2, GST-tagged human Aurora B(AurB)/His-tagged human INCENP complex proteins (Homo sapiens, UniProt Q96GD4); experiment: Aurora B inhibitory activity (Method A, IMAP assay kit); format: biochemical; settings: 40 μM ATP, 25° C., 45 minutes
T2 construct: GST; purchased Carna Biosciences, Inc
Procedure: An assay development kit for IMAP (registered trademark) (Aurora B), purchased from Carna Biosciences, Inc., was used for phosphorylation reaction, and the phosphorylation of a substrate was detected using the IMAP technology. […] Using the same, the phosphorylation reaction was conducted in accordance with a partially revised protocol attached to the kit, and then the phosphorylation of the substrate was detected using the IMAP technology.
For the phosphorylation reaction, 384 well plate was used, and the reaction volume was 10 μl/well. The composition of the reaction buffer (assay buffer) is comprised of 20 mM of HEPES buffer (pH 7.4), 0.01% Tween-20, and 2 mM of dithiothreitol (DTT). Thereto, AurB/INCENP complex protein, 100 nM of the substrate, and 40 μM of ATP, and 1 mM of magnesium salt were added, and then the reaction was conducted at 25° C. for 45 minutes. Thereafter, in order to terminate and detect the reaction, 30 μl of the IMAP (registered trademark) binding reagent (IMAP Progressive Binding Reagent, R7284) that had been diluted (1:400) in the 1× IMAP binding buffer A (IMAP Progressive Binding Buffer A, 5× stock, R7282) was added to each well.
as §2, with “DMSO” for “dimethylsulfoxide (DMSO)”

[5] = Homo sapiens, HeLa S3, 72 h, read-out: Cell growth inhibitory effect by sole administration of the compound of Example (%)
[6] = compound 0.1 μM + docetaxel 0.3 nM
[7] = compound 0.3 μM + docetaxel 0.3 nM

T2 sequence (Q96GD4 whole entry): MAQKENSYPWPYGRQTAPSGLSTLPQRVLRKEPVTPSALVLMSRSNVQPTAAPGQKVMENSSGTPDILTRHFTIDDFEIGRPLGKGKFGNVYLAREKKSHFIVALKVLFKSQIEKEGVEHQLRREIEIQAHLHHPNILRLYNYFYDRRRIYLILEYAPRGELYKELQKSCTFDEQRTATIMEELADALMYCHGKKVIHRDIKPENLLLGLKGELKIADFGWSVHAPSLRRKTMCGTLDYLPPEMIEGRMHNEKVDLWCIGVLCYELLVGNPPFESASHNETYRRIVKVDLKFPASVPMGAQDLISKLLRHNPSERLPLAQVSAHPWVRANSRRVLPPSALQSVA
T2 sequence (Q9NQS7 803-916 partner limits assumed): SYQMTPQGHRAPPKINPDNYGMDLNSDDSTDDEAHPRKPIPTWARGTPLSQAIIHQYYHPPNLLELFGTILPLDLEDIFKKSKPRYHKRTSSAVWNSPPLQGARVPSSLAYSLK

IC50 [2] | IC50 [3] | IC50 [4] | SMILES | inhibition at 0.1 µM [1, 5] | inhibition at 0.3 µM [1, 5] | Cell growth inhibitory effect by combined administration of docetaxel and the compound of Example (%) [1, 6] | Cell growth inhibitory effect by combined administration of docetaxel and the compound of Example (%) [1, 7] | inhibition at 1 µM ([1]; Homo sapiens, HeLa S3, 72 h, compound 1.0 μM alone, read-out: Cell growth inhibitory effect by sole administration of the compound of Example (%)) | Cell growth inhibitory effect by combined administration of docetaxel and the compound of Example (%) ([1]; compound 1.0 μM + docetaxel 0.3 nM)
340 nM | 0.08 nM | 39 nM | O=C(O)[C@]1(Cc2cccc(Nc3nccs3)n2)CC[C@@H](Sc2cccc(Cl)c2Cl)CC1 [Example 30, trans-4-((2,3-dichlorophenyl)thio)-1-((6-(1,3-thiazol-2-ylamino)pyridin-2-yl)methyl)cyclohexanecarboxylic acid trifluoroacetate] | 28.3% | 53.4% | 81.2% | 92.0% |  | 
870 nM | 0.47 nM | 690 nM | O=c1[nH]nc([C@]2(Cc3cccc(Nc4cc[nH]n4)n3)CC[C@@H](Sc3cccc(Cl)c3Cl)CC2)o1 [Example 34, 5-(trans-4-((2,3-dichlorophenyl)thio)-1-((6-(1H-pyrazol-3-ylamino)pyridin-2-yl)methyl)cyclohexyl)-1,3,4-oxadiazol-2(3H)-one trifluoroacetate] | 3.9% | 40.8% | 83.8% | 93.9% |  | 
590 nM | 0.15 nM | 70 nM | O=C(O)[C@]1(Cc2cccc(Nc3nccs3)n2)CC[C@@H](S(=O)(=O)c2cccc(Cl)c2Cl)CC1 [Example 32, trans-4-((2,3-dichlorophenyl)sulfonyl)-1-((6-(1,3-thiazol-2-ylamino)pyridin-2-yl)methyl)cyclohexanecarboxylic acid trifluoroacetate] | 6.3% | 40.8% | 88.6% | 94.0% |  | 

The next lines start with the compound.

SMILES | IC50 [2] | IC50 [3] | IC50 [4] | inhibition at 0.1 µM [1, 5] | inhibition at 0.3 µM [1, 5] | Cell growth inhibitory effect by combined administration of docetaxel and the compound of Example (%) [1, 6] | Cell growth inhibitory effect by combined administration of docetaxel and the compound of Example (%) [1, 7] | inhibition at 1 µM ([1]; Homo sapiens, HeLa S3, 72 h, compound 1.0 μM alone, read-out: Cell growth inhibitory effect by sole administration of the compound of Example (%)) | Cell growth inhibitory effect by combined administration of docetaxel and the compound of Example (%) ([1]; compound 1.0 μM + docetaxel 0.3 nM)
Fc1c(Cl)cccc1O[C@H]1CC[C@](Cc2cccc(Nc3cc[nH]n3)n2)(c2n[nH]c(=S)o2)CC1 [Example 24, 5-(trans-4-(3-chloro-2-fluorophenoxy)-1-((6-(1H-pyrazol-3-ylamino)pyridin-2-yl)methyl)cyclohexyl)-1,3,4-oxadiazole-2(3H)-thione] | 1150 nM | 0.12 nM | 130 nM | 0.5% | 25.4% | 72.8% | 87.8% |  | 
O=c1[nH]nc([C@]2(Cc3cccc(Nc4cc[nH]n4)n3)CC[C@@H](Oc3cccc(Cl)c3F)CC2)o1 [Example 23, 5-(trans-4-(3-chloro-2-fluorophenoxy)-1-((6-(1H-pyrazol-3-ylamino)pyridin-2-yl)methyl)cyclohexyl)-1,3,4-oxadiazol-2(3H)-one] | 760 nM | 0.39 nM | 490 nM | 3.7% | 36% | 71.5% | 87.4% |  | 
Cl.O=C(O)[C@]1(Cc2cccc(Nc3nccs3)n2)CC[C@@H](Oc2cccc(Cl)c2Cl)CC1 [Example 6, trans-4-(2,3-dichlorophenoxy)-1-((6-(1,3-thiazol-2-ylamino)pyridin-2-yl)methyl)cyclohexanecarboxylic acid hydrochloride] | 1930 nM | 0.07 nM | 37 nM |  | 7.2% |  | 70.0% | 25.6% | 87.0%
